Measured values published in PMC10374545, “A small molecule inhibitor of PTP1B and PTPN2 enhances T cell anti-tumor immunity” (Nature Communications, 2023).
“And” between values parts separate entries of the source, which are not always exact repeats. Equal values may be shown once.

Experiments:
[1] = tested on: AT3 mammary tumors; assay: Tumor-infiltrating lymphocytes in AT3 tumors; type: in vivo, mouse; parameters: CD4 EM, individual mice / CD8 EM, individual mice / GRZMB, individual mice / B cells, individual mice / NK cells, individual mice / Tregs, individual mice / MDSCs, individual mice: unit not given here
Method: Tumor-bearing mice were sacrificed and tumors were excised and digested at 37 °C for 30 min using a cocktail of 1 mg/ml collagenase type IV (Worthington Biochemicals) and 0.02 mg/ml DNase I (Sigma-Aldrich) in DMEM supplemented with 2% (v/v) FBS. Cells were passed through a 70 μm cell strainer (BD Biosciences) twice and processed for flow cytometry. For assessing T cell activation, cells were surface stained with fluorophore-conjugated antibodies to CD62L, CD44, PD-1, and TIM-3. For the assessment of NK cells, B cells, myeloid-derived suppressor cells (MDSCs), dendritic cells (DCs), and tumor-associated macrophages, cells were surface stained with fluorophore-conjugated antibodies to NK1.1, TCRβ, CD19, CD11b, CD11c, F4/80, Ly6C and Ly6G. For the detection of intracellular cytokines TNF and IFNγ, T cells were stimulated with PMA (20 ng/ml; Sigma-Aldrich) and ionomycin (1 μg/ml; Sigma-Aldrich) in the presence of GolgiPlug™ and GolgiStop™ (BD Biosciences) for 4 h at 37 °C in complete T cell medium. For the intracellular detection of granzyme B, cells were processed untreated without the addition of BD GolgiPlug™ and BD GolgiStop™.

[2] = tested on: AT3-OVA mammary tumors; assay: AT3-OVA tumor growth in Rag1-/- mice; type: in vivo, mouse; parameters: key to Tumour growth: tumour size in mm^2 (two-dimensional caliper measurement); Tumour weights: unit not given here; settings: for Tumour size RAG1, mean: in mm2
Method: Male or female mice were injected subcutaneously with 5 × 10^5 MC38 tumor cells resuspended in 100 μl D-PBS into the flank. Alternatively, female mice were injected orthotopically with 5 × 10^5 AT3 or AT3-OVA or PTPN2-deleted AT3 or AT3-OVA tumor cells resuspended in 20 μl D-PBS into the fourth mammary fat pad. Tumor sizes were measured in two dimensions (mm^2) using electronic callipers two to three times per week as soon as tumors were palpable (20–25 mm^2).

[3] = AT-3 tumours, Figure 4E, listed as CMP-182
[4] = AT-3 tumours, Figure 4F, listed as CMP-182

CC(C)(O)CCOc1ccc2cc(O)c(N3CC(=O)NS3(=O)=O)c(F)c2c1 [Compound 182, 5-(1-Fluoro-3-hydroxy-7-(3-hydroxy-3-methylbutoxy)naphthalen-2-yl)−1,2,5-thiadiazolidin-3-one 1,1-dioxide]
TILs in AT3 tumors ([1]; 10 mg/kg i.v.): increased TILs
CD4 EM, individual mice [1, 3]: 3726.1 and 1503.32 and 2365.26 and 3607.46 and 1559.09
CD8 EM, individual mice [1, 3]: 36747.8 and 11580.8 and 23763.5 and 22145.6 and 15367.2
GRZMB, individual mice [1, 3]: 38 and 29.8 and 32 and 36.3 and 27.7
PD-1 TIM-3, individual mice [1, 3]: 17.7 and 30.7 and 29.6 and 26.7 and 38
B cells, individual mice [1, 4]: 10773 and 2554.29 and 3750.15 and 13582.9 and 3202.26
MDSCs, individual mice [1, 4]: 17269.7 and 11457.4 and 14297.5 and 10691.6 and 5468.87
NK cells, individual mice [1, 4]: 10197.4 and 4505.05 and 4177.56 and 6667.39 and 3703.02
Tregs, individual mice [1, 4]: 857.48 and 533.579 and 888.636 and 1675.89 and 531.261
AT3-OVA mammary tumor growth in Rag1-/- mice ([2]; 10 mg/kg i.v., mice lack T and B cells): no effect
Tumour growth ([2]; Figure 6E, RAG1 mice, n=6, individual animals, day 9 post injection, listed as CMP-182): 7.7488 and 14.8962 and 11.224 and 3.9597 and 9.447 and 12.6224
Tumour growth ([2]; Figure 6E, RAG1 mice, n=6, individual animals, day 11 post injection, listed as CMP-182): 19.6245 and 35.0523 and 26.8632 and 16.6934 and 15.0024 and 31.8592
Tumour growth ([2]; Figure 6E, RAG1 mice, n=6, individual animals, day 14 post injection, listed as CMP-182): 31.9081 and 32.6823 and 36.7674 and 25.1923 and 36.3137 and 48.8592
Tumour growth ([2]; Figure 6E, RAG1 mice, n=6, individual animals, day 16 post injection, listed as CMP-182): 59.5752 and 89.2808 and 73.4616 and 57.4821 and 68.9011 and 83.2686
Tumour growth ([2]; Figure 6E, RAG1 mice, n=6, individual animals, day 18 post injection, listed as CMP-182): 74.7088 and 110.046 and 88.7004 and 79.0656 and 57.8454 and 92.4255
Tumour growth ([2]; Figure 6E, RAG1 mice, n=6, individual animals, day 21 post injection, listed as CMP-182): 75.82 and 124.872 and 109.74 and 89.0525 and 89.04 and 103.68
Tumour growth ([2]; Figure 6E, RAG1 mice, n=6, individual animals, day 23 post injection, listed as CMP-182): 84.728 and 134.64 (3×) and 89.0525 and 133.35
Tumour growth ([2]; Figure 6E, RAG1 mice, n=6, individual animals, day 25 post injection, listed as CMP-182): 88 and 156.6 and 126.72 and 89.0525 and 186.66 and 168.74
Tumour weights ([2]; Figure 6E, RAG1 mice, n=6, individual animals, listed as CMP-182): 270 and 560 and 890 and 220 and 490 and 330
TUMOR WEIGHTS RAG1, median ([2]; RAG1 mice, column B (Data Set-B), n=6, Figure 6E): 410.0, n=6
Tumour size RAG1, mean over all time points (column mean) ([2]; RAG1 mice, n=6, Figure 6E, mean of 8 time points): 72.3 mm2
Tumour size RAG1, mean ([2]; RAG1 mice, n=6, time point 9, Figure 6E): 9.983
Tumour size RAG1, mean ([2]; RAG1 mice, n=6, time point 11, Figure 6E): 24.18
Tumour size RAG1, mean ([2]; RAG1 mice, n=6, time point 14, Figure 6E): 35.29
Tumour size RAG1, mean ([2]; RAG1 mice, n=6, time point 16, Figure 6E): 71.99
Tumour size RAG1, mean ([2]; RAG1 mice, n=6, time point 18, Figure 6E): 83.8
Tumour size RAG1, mean ([2]; RAG1 mice, n=6, time point 21, Figure 6E): 98.7
Tumour size RAG1, mean ([2]; RAG1 mice, n=6, time point 23, Figure 6E): 118.5
Tumour size RAG1, mean ([2]; RAG1 mice, n=6, time point 25, Figure 6E): 136
